This is an account of results in paper PMC4763312, “Comparative study of curcumin and curcumin formulated in a solid dispersion: Evaluation of their antigenotoxic effects” (Genetics and Molecular Biology, 2015).

Each structure is given as a SMILES string.

Common to all, as to type: in vivo, Wistar rats
The nature of series [1]: Cell viability by Trypan blue dye exclusion, kidney cells. The conditions noted are these: male, Wistar, rat, kidney cells, oral, % in relation to saline solution group. Here is the method:
(§1) These were administered via gavage at 72 h, 48 h, 24h or 30 min before the intraperitoneal administration of saline solution or the antitumoral agent cDDP, which was used as a damage-inducing agent. The alkaline version of the comet assay was performed according to protocols proposed by [Singh et al. (1988)] and [Tice et al. (2000)], with minor modifications (the slides were stained with GelRed, 1:10,000, Biotium-USA). To check for possible cytotoxic effects of the treatments, cell viability was determined via the Trypan blue dye exclusion method. […] Following lysis, the slides were placed in a horizontal electrophoresis unit containing 300 mM NaOH and 1 mM EDTA (pH > 13) for 20 min at an electric field strength of 0.78 V/cm (25 V and 300 mA). The slides were neutralized and stained with Gel Red (1:10,000). A total of 100 nucleoids per animal (two slides of 50 nucleoids each) were analysed at a 400x magnification using a fluorescence microscope (Axiostar, Zeiss, Germany) equipped with a 515-560 nm excitation filter, a 590 nm barrier filter and an integrated digital camera. Tail intensity (% tail DNA) was evaluated using the Comet Assay IV software (Perceptive Instruments, Suffolk, UK).

Another series relates to bone marrow erythrocytes. The experiment in a line: Micronucleus test in bone marrow. Here is the method: These were administered via gavage at 72 h, 48 h, 24h or 30 min before the intraperitoneal administration of saline solution or the antitumoral agent cDDP, which was used as a damage-inducing agent. The body weights of the rats were recorded daily. At 24 h after cDDP administration (5th day), the animals were euthanized for sample collection. […] The same animals were used in genotoxicity assays (micronucleus test and comet assay) and biochemical tests (GSH and TBARS), as well as for the expression analysis of the Tp53 gene. The micronucleus test was performed according to the protocol described by [Schmid (1975)]. Bone marrow cells were harvested from rat femurs, mixed with fetal bovine serum, homogenized and centrifuged, and the pellet was resuspended for slide preparations. The slides were then fixed, stained with Giemsa solution and coded. Three slides were produced for each animal. Coded slides were scored under 1000X magnification using a light microscope (Zeiss).

Series [2] is described as follows: Cell viability by Trypan blue dye exclusion, peripheral blood cells. The conditions noted are these: male, Wistar, rat, peripheral blood cells, oral, % in relation to saline solution group. On the procedure:
as §1

Series [3] is described as follows: Variation in body mass and relative mass of the kidney. On the procedure: Male Wistar albino rats, at 5-6 weeks of age and weighing approximately 160 g were obtained from the Animal Facility of the Ribeirão Preto Campus of the University of São Paulo. The animals were divided into 12 groups of six for each treatment. The experimental protocols applied in this study were approved by the Local Ethics Committee for Animal Use (CEUA) of Ribeirão Preto, Brazil, Register No.08.1.1417.53.2. […] These were administered via gavage at 72 h, 48 h, 24h or 30 min before the intraperitoneal administration of saline solution or the antitumoral agent cDDP, which was used as a damage-inducing agent. The body weights of the rats were recorded daily. At 24 h after cDDP administration (5th day), the animals were euthanized for sample collection. […] The same animals were used in genotoxicity assays (micronucleus test and comet assay) and biochemical tests (GSH and TBARS), as well as for the expression analysis of the Tp53 gene.

In series [4] the test system is reduced glutathione (GSH) in kidney tissue. The experiment in a line: GSH level in the kidney. The conditions noted are these: for GSH: kidney. On the procedure:
These were administered via gavage at 72 h, 48 h, 24h or 30 min before the intraperitoneal administration of saline solution or the antitumoral agent cDDP, which was used as a damage-inducing agent. The body weights of the rats were recorded daily. At 24 h after cDDP administration (5th day), the animals were euthanized for sample collection. […] The same animals were used in genotoxicity assays (micronucleus test and comet assay) and biochemical tests (GSH and TBARS), as well as for the expression analysis of the Tp53 gene. GSH concentrations in kidney tissue were determined according to method described by [Sedlak and Lindsay (1968)]. […] A 2.0 mL volume of Tris-EDTA buffer (0.2 M, pH 8.9) and 0.1 mL of 5,5 ‘-dithio-bis-2-nitrobenzoic acid (DTNB) in 0.01 M methanol were added to a 0.5 mL aliquot of the supernatant. The samples were maintained at room temperature for 15 min and then read at 412 nm (RayLeigh UV-1601 spectrophotometer). Standard curves were prepared using α-cysteine, and results were expressed as nmol GSH/g protein. The quantification of total proteins was done at 650 nm (RayLeigh UV-1601 spectrophotometer) using Lowry’s method ([Hartree, 1972]).

For series [5], the system named is peripheral blood cells. Nature of the series: Alkaline comet assay, peripheral blood cells. On the procedure: as §1, with “agent. The body weights of the rats were recorded daily. At 24 h after cDDP administration (5th day), the animals were euthanized for sample collection. […] The same animals were used in genotoxicity assays (micronucleus test and comet assay) and biochemical tests (GSH and TBARS), as well as for the expression analysis of the Tp53 gene.” for “agent.”

The test system of another series is Tp53 mRNA. Nature of the series: Quantification of Tp53 mRNA in kidney tissue (RT-qPCR). To be noted: 50 mg/kg b.w. together with cDDP 6 mg/kg b.w. On the procedure:
These were administered via gavage at 72 h, 48 h, 24h or 30 min before the intraperitoneal administration of saline solution or the antitumoral agent cDDP, which was used as a damage-inducing agent. Total RNA was extracted from kidney tissue using the SV Total Isolation System kit (Promega, Madison, WI, USA), according the manufacturer's instructions. […] The extracted RNA was converted to cDNA using the SuperScriptTM III kit (Invitrogen, Carlsbad, CA, USA), and RT-qPCR was performed in a CFX96 Real-Time PCR Detection System (Bio-Rad, CA, USA) using the Bio-Rad Real-Time PCR system with ABsoluteTM QPCR SYBR1 Green Mix (Invitrogen, Carlsbad, CA, USA), where fluorescence detection was performed following each annealing/extension cycle. The following reference genes were tested for suitability: b-actin (b-actin-forward: […] reverse: […] (GAPDH-forward: […]-reverse: [NT] and […]-forward: […]-reverse [NT] Based on stability, we selected b-actin as the endogenous control gene for RT-qPCR. Gene-specific primers for Tp53 (Tp53-forward: [NT]; Tp53-reverse: […] Louis, MO, USA). RT-qPCR efficiencies for Tp53 and b-actin were satisfactory, and the relative expression of Tp53 mRNA was normalized to the amount of b-actin using the method of relative 2^-ΔΔCt quantification described by [Livak and Schmittgen (2001)].
For orientation: In qPCR the cycle at which signal appears reflects the starting amount.

Series [6] has as its system thiobarbituric-acid-reactive substances (TBARS) in kidney tissue. Nature of the series: TBARS level in the kidney. The conditions noted are these: for TBARS: kidney. Here is the method:
These were administered via gavage at 72 h, 48 h, 24h or 30 min before the intraperitoneal administration of saline solution or the antitumoral agent cDDP, which was used as a damage-inducing agent. The body weights of the rats were recorded daily. At 24 h after cDDP administration (5th day), the animals were euthanized for sample collection. […] The same animals were used in genotoxicity assays (micronucleus test and comet assay) and biochemical tests (GSH and TBARS), as well as for the expression analysis of the Tp53 gene. TBARS measurements in kidney tissue were performed according to [Buege and Aust (1978)]. A 0.5 mL aliquot of the homogenate was added to 1 mL of thiobarbituric acid solution (containing 15% trichloroacetic acid and 0.25 M HCl) to a final concentration of […]. This mixture was warmed in a water bath for 15 min and centrifuged for 20 min at 180 x g. The absorbance of the supernatant was determined at 535 nm (UV-VisB582 Micronal spectrophotometer), and the results were expressed as nmol TBARS/mg protein. […] The quantification of total proteins was done at 650 nm (RayLeigh UV-1601 spectrophotometer) using Lowry’s method ([Hartree, 1972]).

The subject of series [7] is kidney cells. Nature of the series: Alkaline comet assay, kidney cells. Here is the method:
as §1, with “agent. The body weights of the rats were recorded daily. At 24 h after cDDP administration (5th day), the animals were euthanized for sample collection. […] The same animals were used in genotoxicity assays (micronucleus test and comet assay) and biochemical tests (GSH and TBARS), as well as for the expression analysis of the Tp53 gene.” for “agent.”

Series [8] has as its system kidney cells. Nature of the series: Cell viability by Trypan blue dye exclusion, kidney cells. To be noted: % in relation to saline solution group; GLA gavage + cDDP 6 mg/kg b.w. i.p. Here is the method: as §1
The test system of series [9] is peripheral blood cells. The experiment in a line: Cell viability by Trypan blue dye exclusion, peripheral blood cells. To be noted: % in relation to saline solution group; GLA gavage + cDDP 6 mg/kg b.w. i.p. On the procedure: as §1
[10] abbreviates: 50 mg/kg b.w. gavage x4 + cDDP 6 mg/kg b.w. i.p.
The mark [11] stands for this setting: 50 mg/kg b.w. gavage x4 + i.p. saline.
Setting [12] is: 50 mg/kg b.w. gavage x4 + cDDP 6 mg/kg b.w. i.p., 24 h.
[13] abbreviates: GLA gavage + cDDP 6 mg/kg b.w. i.p.
The mark [14] stands for this setting: GLA gavage + cDDP 6 mg/kg b.w. i.p., 24 h.

Consider `COc1cc(C=CC(=O)CC(=O)C=Cc2ccc(O)c(OC)c2)ccc1O` [CMN, 1,7-bis[4-hydroxy 3-methoxyphenyl]-1,6-heptadiene-3,5-dione], for which the viability at 24 h is 88.5 ± 2.2% in series [1] (setting [10]), 89 ± 2.3% in [1] (setting [11]), 99.2 ± 0.7% in series [2] (setting [10]) and 98.7 ± 0.5% in series [2] (setting [11]). Moreover, the “Frequency of micronucleated polychromatic erythrocytes, MNPCEs/1000 PCEs” value is 7.08 ± 3.04 ^# MNPCEs/1000 PCEs in the series with bone marrow erythrocytes (setting [10]) and 1.91 ± 1.27 MNPCEs/1000 PCEs with bone marrow erythrocytes (setting [11]). For the same compound, in the series with bone marrow erythrocytes (CMN SD 5, 25 and 50 mg/kg b.w., unmodified CMN 50 mg/kg b.w., p < 0.05), the “Formation of cDDP-induced micronuclei (in words)” value is reported as “significantly reduced”. The figures for the “Body weight variation, interval 2 (day 4 to 5)” value in series [3] (setting [10]) and in series [3] (setting [11]) were 0.1 ± 2.5 g and 8.2 ± 2.4 g, respectively. Besides, the Kidney/body weight in series [3] (setting [10]) came out at 0.90 ± 0.06%; in series [3] (setting [11]), 0.96 ± 0.05%. The “Body weight variation, interval 1 (days 1 to 4)” value was 31.8 ± 4.7 g in [3] (50 mg/kg b.w. gavage x4 + cDDP 6 mg/kg b.w. i.p. group) and 31.7 ± 6.6 g in [3] (setting [11]). Moreover, in series [3] (combined application with cDDP), the “Reduction of body weight gain triggered by cDDP (in words)” value was “did not alter the reduction of body weight gain”. For the same compound, the “GSH concentration in renal tissue (in words)” value in series [4] (administered alone) is “did not alter”. Moreover, the GSH in [4] (setting [12]) is given as 17.0 ± 1.4 nmol/mg protein; in series [4] (setting [11]), 14.4 ± 1.2 nmol/mg protein. The results for the “% tail DNA, peripheral blood” value with peripheral blood cells [5] (setting [10]) and in the series with peripheral blood cells [5] (setting [11]) were 2.1 ± 0.6% and 3.2 ± 0.9%, respectively. Besides, the “Tp53 expression compared to saline solution group” value in the series on Tp53 mRNA is given as “up-regulated”. Further, in [6] (administered alone), the “TBARS concentration in renal tissue (in words)” value is recorded as “did not alter”. Further, the TBARS in series [6] (setting [12]) amounted to 0.222 ± 0.064 nmol/mg protein; in [6] (setting [11]), 0.236 ± 0.018 nmol/mg protein. Also, the “TBARS levels, administered together with cDDP (in words)” value in series [6] (with cDDP 6 mg/kg b.w., p > 0.05 vs saline solution group) is on record as “able to maintain the TBARS levels observed in the saline solution group”. The “% tail DNA, kidney” value worked out at 4.0 ± 0.8% in the series on kidney cells [7] (setting [10]) and 5.5 ± 2.8% in the series on kidney cells [7] (setting [11]). Also, in the series on kidney cells [7] (with cDDP 6 mg/kg b.w.), the “Comet assay, in association with cDDP compared to cDDP-only group (in words)” value is given as “did not induce significant alterations”.
On to `[NH2][Pt]([NH2])([Cl])[Cl]` [cDDP, Cisplatin], for which, in the series with kidney cells [8], the “Cell viability, kidney” value stood at 86.5 ± 3.1%. Besides, the “Frequency of micronucleated polychromatic erythrocytes, MNPCEs/1000 PCEs” value in the series with bone marrow erythrocytes (setting [13]) came to 12.75 ± 3.32 MNPCEs/1000 PCEs. For the same compound, in the series on bone marrow erythrocytes (in 500 erythrocytes, GLA gavage + cDDP 6 mg/kg b.w. i.p.), the “PCE/(PCE + NCE) ratio” value was 44.8 ± 4.9%. Moreover, the “Cell viability, peripheral blood” value in the series on peripheral blood cells [9] is given as 98.8 ± 0.7%. For the same compound, in [3] (setting [13]), the “Body weight variation, interval 2 (day 4 to 5)” value amounted to 0.8 ± 2.2 g and the Kidney/body weight came to 1.02 ± 0.11%. Besides, the “Body weight variation, interval 1 (days 1 to 4)” value in [3] (GLA gavage + cDDP 6 mg/kg b.w. i.p. group) is recorded as 27.5 ± 6.1 g. Besides, the GSH in [4] (setting [14]) is 18.5 ± 0.6 nmol/mg protein. Moreover, the “% tail DNA, peripheral blood” value in the series on peripheral blood cells [5] (setting [13]) is 2.2 ± 0.8%. Moreover, the TBARS in series [6] (setting [14]) was found to be 0.286 ± 0.014 nmol/mg protein. In addition, in the series with kidney cells [7] (setting [13]), the “% tail DNA, kidney” value was determined as 3.8 ± 0.7 %.

In general, viability refers to the share of living cells, or the viability signal relative to a control.
